What was measured:
Assay type in all cases: biochemical
[1] = target: T1, UGT1A6 (Homo sapiens, UniProt P19224); assay: 4MU glucuronidation, HPLC of 4MUG
T1 construct: Supersome recombinant human enzyme (Corning), microsomal preparation
T1 sequence (P19224 27-532): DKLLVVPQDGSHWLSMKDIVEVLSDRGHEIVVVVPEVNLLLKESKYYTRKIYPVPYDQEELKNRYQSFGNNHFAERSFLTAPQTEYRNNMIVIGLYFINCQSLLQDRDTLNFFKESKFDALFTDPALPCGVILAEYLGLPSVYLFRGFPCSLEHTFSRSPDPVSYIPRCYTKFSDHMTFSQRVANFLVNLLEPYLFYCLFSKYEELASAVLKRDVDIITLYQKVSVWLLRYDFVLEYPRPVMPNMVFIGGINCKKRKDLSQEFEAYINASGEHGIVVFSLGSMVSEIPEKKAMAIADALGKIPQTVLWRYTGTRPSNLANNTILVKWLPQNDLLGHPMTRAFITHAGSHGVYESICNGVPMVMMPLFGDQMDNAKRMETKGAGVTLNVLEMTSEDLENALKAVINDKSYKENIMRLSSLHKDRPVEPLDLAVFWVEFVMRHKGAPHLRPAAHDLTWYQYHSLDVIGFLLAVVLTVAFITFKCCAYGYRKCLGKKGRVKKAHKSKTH
Description: 4MU glucuronidation, HPLC of 4MUG on UGT1A6

[2] = target: T2, UGT1A9 (Homo sapiens, UniProt O60656); assay: 4MU glucuronidation, HPLC of 4MUG, Dixon plot
T2 construct: Supersome recombinant human enzyme (Corning), microsomal preparation
T2 sequence (O60656 26-530): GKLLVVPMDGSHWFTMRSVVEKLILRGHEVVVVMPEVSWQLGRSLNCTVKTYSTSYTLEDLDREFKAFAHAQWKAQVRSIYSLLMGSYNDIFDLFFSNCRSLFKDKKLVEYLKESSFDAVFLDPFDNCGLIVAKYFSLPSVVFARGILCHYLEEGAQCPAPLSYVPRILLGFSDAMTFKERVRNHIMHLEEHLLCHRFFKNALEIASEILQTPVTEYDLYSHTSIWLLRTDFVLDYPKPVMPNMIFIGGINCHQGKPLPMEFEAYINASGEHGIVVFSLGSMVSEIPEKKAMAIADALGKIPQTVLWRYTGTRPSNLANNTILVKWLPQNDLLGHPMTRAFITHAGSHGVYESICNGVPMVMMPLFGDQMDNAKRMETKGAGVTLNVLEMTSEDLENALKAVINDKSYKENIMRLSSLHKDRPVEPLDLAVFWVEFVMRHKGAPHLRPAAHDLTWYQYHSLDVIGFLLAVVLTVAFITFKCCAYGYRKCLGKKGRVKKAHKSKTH
Description: 4MU glucuronidation, HPLC of 4MUG, Dixon plot on UGT1A9

[3] = target: T3, UGT1A3 (Homo sapiens, UniProt P35503); assay: 4MU glucuronidation, HPLC of 4MUG
T3 construct: Supersome recombinant human enzyme (Corning), microsomal preparation
T3 sequence (P35503 29-534): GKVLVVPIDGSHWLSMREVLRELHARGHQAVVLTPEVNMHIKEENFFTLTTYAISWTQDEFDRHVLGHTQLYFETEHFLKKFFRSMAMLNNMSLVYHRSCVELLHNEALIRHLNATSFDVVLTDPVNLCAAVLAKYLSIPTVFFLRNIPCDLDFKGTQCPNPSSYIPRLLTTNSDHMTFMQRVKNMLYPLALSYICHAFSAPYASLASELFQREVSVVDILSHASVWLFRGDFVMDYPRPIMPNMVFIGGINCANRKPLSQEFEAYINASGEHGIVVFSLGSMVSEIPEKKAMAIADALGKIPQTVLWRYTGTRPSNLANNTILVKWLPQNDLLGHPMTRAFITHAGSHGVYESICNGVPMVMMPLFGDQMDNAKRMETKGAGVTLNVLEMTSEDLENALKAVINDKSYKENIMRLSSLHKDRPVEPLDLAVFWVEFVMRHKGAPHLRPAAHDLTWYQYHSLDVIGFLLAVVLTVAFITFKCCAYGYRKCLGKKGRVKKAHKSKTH
Description: 4MU glucuronidation, HPLC of 4MUG on UGT1A3

[4] = target: T4, UGT1A1 (Homo sapiens, UniProt P22309); assay: 4MU glucuronidation, HPLC of 4MUG
T4 construct: Supersome recombinant human enzyme (Corning), microsomal preparation
T4 sequence (P22309 26-533): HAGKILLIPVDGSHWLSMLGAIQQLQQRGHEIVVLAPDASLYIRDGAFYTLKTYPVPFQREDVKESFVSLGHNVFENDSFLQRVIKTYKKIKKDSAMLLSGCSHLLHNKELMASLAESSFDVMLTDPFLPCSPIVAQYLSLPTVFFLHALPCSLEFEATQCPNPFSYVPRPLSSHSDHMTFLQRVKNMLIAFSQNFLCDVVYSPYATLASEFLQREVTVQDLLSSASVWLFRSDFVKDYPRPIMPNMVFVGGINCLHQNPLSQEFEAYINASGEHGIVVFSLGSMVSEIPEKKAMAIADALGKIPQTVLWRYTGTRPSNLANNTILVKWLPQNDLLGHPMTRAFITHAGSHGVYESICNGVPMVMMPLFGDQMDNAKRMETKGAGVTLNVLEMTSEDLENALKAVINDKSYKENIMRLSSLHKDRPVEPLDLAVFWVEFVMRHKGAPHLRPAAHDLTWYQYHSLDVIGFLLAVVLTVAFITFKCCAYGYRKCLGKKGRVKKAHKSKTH
Description: 4MU glucuronidation, HPLC of 4MUG on UGT1A1

[5] = target: T5, UGT2B7 (Homo sapiens, UniProt P16662); assay: 4MU glucuronidation, HPLC of 4MUG
T5 construct: Supersome recombinant human enzyme (Corning), microsomal preparation
T5 sequence (P16662 24-529): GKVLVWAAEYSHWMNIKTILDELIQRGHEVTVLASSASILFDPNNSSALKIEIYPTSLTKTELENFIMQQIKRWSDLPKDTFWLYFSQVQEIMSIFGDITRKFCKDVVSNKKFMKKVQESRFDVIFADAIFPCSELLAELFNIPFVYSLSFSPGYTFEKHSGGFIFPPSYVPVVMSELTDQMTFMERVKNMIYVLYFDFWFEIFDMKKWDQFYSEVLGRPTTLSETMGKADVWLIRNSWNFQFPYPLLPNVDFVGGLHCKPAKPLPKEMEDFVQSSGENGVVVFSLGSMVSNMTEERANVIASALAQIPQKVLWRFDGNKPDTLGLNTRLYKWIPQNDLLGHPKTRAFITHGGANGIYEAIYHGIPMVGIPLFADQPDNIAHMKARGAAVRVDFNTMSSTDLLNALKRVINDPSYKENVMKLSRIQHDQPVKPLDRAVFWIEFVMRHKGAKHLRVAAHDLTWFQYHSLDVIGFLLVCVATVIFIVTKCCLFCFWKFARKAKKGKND
Description: 4MU glucuronidation, HPLC of 4MUG on UGT2B7

[6] = target: T2, UGT1A9; assay: 4MU glucuronidation, HPLC of 4MUG
Description: 4MU glucuronidation, HPLC of 4MUG on UGT1A9

[7] = target: T3, UGT1A3; assay: 4MU glucuronidation, HPLC of 4MUG, Dixon plot
Description: 4MU glucuronidation, HPLC of 4MUG, Dixon plot on UGT1A3

[8] = target: T6, UGT2B15 (Homo sapiens, UniProt P54855); assay: 4MU glucuronidation, HPLC of 4MUG
T6 construct: Supersome recombinant human enzyme (Corning), microsomal preparation
T6 sequence (P54855 24-530): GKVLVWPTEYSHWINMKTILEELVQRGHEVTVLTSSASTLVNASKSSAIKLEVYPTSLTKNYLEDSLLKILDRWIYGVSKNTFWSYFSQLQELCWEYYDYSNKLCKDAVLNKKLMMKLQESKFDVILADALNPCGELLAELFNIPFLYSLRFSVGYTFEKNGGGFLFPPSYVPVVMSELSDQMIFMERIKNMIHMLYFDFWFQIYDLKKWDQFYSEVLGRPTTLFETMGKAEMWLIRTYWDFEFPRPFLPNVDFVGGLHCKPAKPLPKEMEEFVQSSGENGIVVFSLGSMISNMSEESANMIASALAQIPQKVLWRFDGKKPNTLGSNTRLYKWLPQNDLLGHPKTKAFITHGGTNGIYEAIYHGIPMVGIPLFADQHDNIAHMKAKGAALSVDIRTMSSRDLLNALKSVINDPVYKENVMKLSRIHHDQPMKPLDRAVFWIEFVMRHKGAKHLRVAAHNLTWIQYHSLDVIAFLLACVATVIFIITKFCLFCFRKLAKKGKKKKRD
Description: 4MU glucuronidation, HPLC of 4MUG on UGT2B15

`CC[C@@H]1CN2CCc3c([nH]c4cccc(OC)c34)[C@@H]2C[C@@H]1/C(=C\OC)C(=O)OC` [mitragynine] gave an IC50 [1] of 121 ± 44 µM, a Ki [2] of 114 ± 13 µM and an IC50 [3] of 72 ± 0.16 µM. The IC50 [4] was over 200 µM, the IC50 [5] was over 200 µM and the IC50 [6] was 131 ± 11 µM. For the same compound, the Ki [7] was 45 ± 1.3 µM and the IC50 [8] was 152 ± 24 µM.

— publication PMC11872117, “Inhibitory effects of Kratom constituents, mitragynine and 7-hydroxymitragynine, on 4-methylumbelliferone glucuronidation by human UDP-glucuronosyltransferases” (Toxicology Reports, 2025)
